Entries after “also recorded” stand apart in the source; their conditions may differ. Values belong to the molecule of their own block, whether it stands above or below them.
Legend:
[1] = Oral glucose tolerance test; format: in vivo, mice; conditions: for blood glucose levels at all time points after administration: P<0.05
Experimental: Glucose was formulated in water at a concentration of 150 mg/ml and dosed at a volume of 10 ml/kg to produce a dose of 1.5 g/kg. Glucose was measured using the Ascensia II Elite XL glucose monitor ([…]). Measure glucose by taking a small (2 mm) section off the tip of the tail, bleed onto glucose test strip and measure. Data for each time point analyzed by ANOVA and post-hoc Tukey's test. A p value of less then 0.05 was used to indicate statistical significance. […]
In study 1, mice were dosed with Compound 102 and glucose as follows:
In study 2, mice were dosed with Compound 102 and glucose as follows.
Study 3 tested Compound 102 and was conducted as follows: […]

[2] = Western Diet study (weight, food intake, fat pads); format: in vivo, Male CD1/ICR mice
Description: Male CD1/ICR mice were obtained from Harlan. The study was started when mice were 8 weeks of age. Prior to initiation of the study mice fasted for 24 hrs. Mice were fed “Western Diet” that was designed to approximate the “typical” human diet of North America and Europe (Research Diets; New Brunswick, N.J.; Western Diet composition). The Western Diet contained greater then 5 times more fat then normal chow. [table] Mice were weighed daily beginning from the start of the 24 hr fasting period. Food intake was monitored continuously. Mice were bled by retroorbital eyebleed on days 7, 14, 21 and 28 after the initiation of the study. On day of REB mice were dosed 1× with full dose 1 hr prior to bleed. Fat pads were dissected at the end of the study (day 31) weighed and frozen. The following fat pads were dissected: brown, inguinal, axial, mesenteric, renal and epidydimal. Data were averaged and analyzed by ANOVA followed by a post-hoc Tukey's test with a p value of less then 0.05 indicating a statistical difference.

leptin = test: Leptin levels in Western diet treated animals (ELISA); format: in vivo, mice; conditions: animals fed a western diet
Experimental: Blood from mice that were on western diet (Compound 102) were analyzed for leptin levels. Mice were bled by retroorbital eyebleed on days 7, 14, 21 and 28 after the initiation of the study. On day of REB mice were dosed once with full dose 1 hr prior to bleed. Leptin levels were determined by ELISA (R&D Systems) as per directions. Data are expressed as the average±SEM. Data were averaged and analyzed by ANOVA followed by a post-hoc Tukey's test with a p value of less then 0.05 indicating a statistical difference.

Db/Db mice [3] = test: In vivo Db/Db mouse study; conditions: for acute blood glucose response: upon study initiation and on weekly blood glucose testing
Experimental: Db/Db and Db/lean mice were obtained from Harlan at 6 weeks of age. Mice were housed 3 per cage and fed ad libitum normal rodent chow. Mice were kept on a 12 hr Light:dark cycle.
The study was initiated when mice reached an age of 8 weeks and their baseline blood glucose levels were greater than 200 mg/dl. Compound 102 was formulated in PBS: 2N HCl (99:1) at concentrations of 0.5, 1.5 and 5 mg/ml. Mice were dosed at volumes of 10 ml/kg to produce doses of 5, 15 and 50 mg/kg/dose. Mice were dosed twice per day at an 8 hr interval (8 am and 4 pm) during the light cycle.
For the acute blood glucose measurements, blood glucose levels were measured after the animals received their first dose of Compound 102. Blood glucose levels were measured two hours after this initial injection.
Mice were administered vehicle or drug (i.e., Compound 102) (5, 15, and 50 mg/kg) twice per day (bid) for the 28 days. Mouse weight and food intake were monitored daily. Food intake is reported as food intake (grams) per mouse per 24 hr period.

Zucker rats = test: In vivo Zucker rat study (oral glucose challenge); conditions: 30 mg/kg ip; glucose 1.5 g/kg; 30 and 270 minutes after administration
Experimental: Zucker rats and corresponding lean rats were supplied by Harlan. Rats were fed a normal diet, ad libitum, and kept on a 12 hr light/dark cycle. Rats were housed 3 per cage. At 12 weeks of age, Zucker rats were administered Compound 102 at a concentration of 30 mg/kg (ip). Blood glucose levels were measured 30 minutes after administration. Forty-five minutes after drug administration, animals were administered a glucose solution (1.5 g/kg) by oral gavage. Blood glucose levels were measured every 30 minutes after gavage for 4.5 hrs. There were 3 groups with 3 animals per group: 1) 3 Zucker leans (no drug; no glucose treatment); 2) Zucker vehicle treated group (glucose challenged and 3) Zucker Compound 102 treatment (30 mg/kg); glucose challenged.

Db/Db mice [4] = test: Blood glucose and serum insulin levels in db/db mice, 56 days; format: in vivo
Experimental: Blood glucose levels were measured once per week and serum insulin levels measured at the beginning and at the end of the study.

pancreatic β-cells = test: Pancreatic β-cell degeneration in db/db mice (insulin antibody staining of pancreas); format: in vivo
Experimental: Db/db mice were administered Compound 102 (100 mg/kg) for 60 days. At the end of the treatment period, pancreases were removed, post-fixed, sectioned and stained with insulin antibody to visualize pancreatic β-cells. Vehicle treated db/db mice expressed dramatically less insulin staining than lean control mice.

[5] = study 1, single administration, 30 mg/kg
[6] = Western diet, fat pads dissected day 31
[7] = IP, twice/day, four weeks, 5, 15 and 50 mg/kg
[8] = chronic treatment, histology, vs untreated controls, FIG. 2

defecation ([2]; chronic administration, high fat diet): defecated normally
hyperactivity normally associated with the amphetamine class of weight-loss drugs ([2]; mouse, in vivo): did not display the hyperactivity
Structure (SMILES): Cc1cccc(Oc2cnc(=O)[nH]c2)c1 [Compound 102]
blood glucose levels produced by oral glucose administration [1, 5]: significantly attenuated
normal blood glucose levels (pre-glucose loading) [1, 5]: significantly decreased
time after drug administration at which significance was lost [1, 5]: 90 min
effect on blood glucose levels ([1]; study 2, increased dosing): more dramatic effect
food intake ([2]; Western / high fat diet fed mice): not affected; also recorded: independent of an effect on food intake; also recorded: normal food intake
brown, axial, inguinal, renal and epipdydimal fat pad increases [2, 6]: significantly reduced
mesenteric fat pad levels [2, 6]: not
weight gain ([2]; Western diet, highest dose tested (30 mg/kg/day), absolute weight and weight change from day 0): significantly reduced
animals fed a western diet and treated, compared with normal diet (weight gain, food intake, fat pad development, leptin) ([2]; summary of Examples 2 and 3): do not look different from those fed a normal diet
weight change / weight-gain response ([2]; western (high fat) diet fed animals, chronic administration, dose not stated): significant alteration; also recorded: significantly inhibited
fat pad development ([2]; western diet fed animals): reduction in fat pad development
blood leptin levels (leptin): reduced leptin levels to those fed a normal diet
acute blood glucose response (Db/Db mice [3]; 15 mg/kg dose group): acute dose response
acute blood glucose response (Db/Db mice [3]; 50 mg/kg dose group): acute dose response
effect on animal weight gain (Db/Db mice [3]; [7]): dose dependent effect
effect on blood glucose levels (Db/Db mice [3]; [7]): dose dependent effect
blood glucose levels following acute administration (Db/Db mice [3]; measured two hours after first dose): reduce blood glucose levels
blood glucose levels after oral glucose administration (Zucker rats): reduced blood glucose levels at both time points
serum insulin levels (Db/Db mice [4]; 30 mg/kg daily for 56 days, beginning vs end of study, FIG. 1): significantly slowed the loss; also recorded: prevention of the loss of serum insulin levels
blood glucose levels (Db/Db mice [4]; 30 mg/kg daily for 56 days, measured once per week, FIG. 1): attenuated the progressive rise; also recorded: decrease in blood glucose
extent of serum insulin lowering associated with pancreatic β-cell loss (Db/Db mice [4]; db/db mice, compared among Compound 102, vehicle and rosiglitazone): do not exhibit the extent of serum insulin lowering
insulin staining of pancreas sections (pancreatic β-cells; 100 mg/kg for 60 days): significantly higher levels of insulin staining than vehicle treated mice
islet insulin content (pancreatic β-cells; [8]): increased insulin content
islet structure (pancreatic β-cells; [8]): better preserved islet structure
pancreatic β-cell degeneration (pancreatic β-cells; db/db mice, FIG. 2): prevents β-cell degeneration; also recorded: prevention of pancreatic β-cell degeneration

Structure (SMILES): O=c1ncc(Oc2cccc(Cl)c2)c[nH]1 [Compound 105]
baseline blood glucose levels ([1]; data not shown): significantly depressed
blood glucose levels ([1]; oral glucose tolerance test, overall statement): dramatic reductions
blood glucose levels at all time points after administration ([1]; single dose 2 mg/kg): significantly (P<0.05) reduced
blood glucose levels at all time points after administration ([1]; single dose 10 mg/kg): significantly (P<0.05) reduced

Source: US12011445B2, “Prevention of pancreatic cell degeneration” (Melior Pharmaceuticals I, Inc., priority 2010, dated 2024)
